What all share (assay): microscale thermophoresis, native tryptophan fluorescence, Hill fit n = […]
Holding throughout (assay type): binding
What all share (settings): read-out: Measured EC50

Assay [1] addresses T1, mOR174-9 (Mus musculus, UniProt Q920P2).
T1 construct: gene Or5d18; full length; C-terminal GSSG linker plus rho1D4 tag (TETSQVAPA); E. coli cell-free expression in Brij-35, purified in FC-14
T1 sequence (Q920P2 1-313): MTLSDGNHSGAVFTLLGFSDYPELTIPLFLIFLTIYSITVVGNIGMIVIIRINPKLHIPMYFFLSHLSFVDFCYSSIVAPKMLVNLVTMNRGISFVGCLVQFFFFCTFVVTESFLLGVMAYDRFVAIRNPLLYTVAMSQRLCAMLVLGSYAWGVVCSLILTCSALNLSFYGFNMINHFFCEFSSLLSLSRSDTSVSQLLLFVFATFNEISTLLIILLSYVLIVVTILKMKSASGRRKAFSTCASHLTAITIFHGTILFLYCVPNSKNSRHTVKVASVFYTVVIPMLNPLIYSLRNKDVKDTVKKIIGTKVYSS

Assay [2] has as its target T2, mOR174-4 (Mus musculus, UniProt Q920P1).
T2 construct: gene Or5d47; full length; C-terminal GSSG linker plus rho1D4 tag (TETSQVAPA); E. coli cell-free expression in Brij-35, purified in FC-14
T2 sequence (Q920P1 1-318): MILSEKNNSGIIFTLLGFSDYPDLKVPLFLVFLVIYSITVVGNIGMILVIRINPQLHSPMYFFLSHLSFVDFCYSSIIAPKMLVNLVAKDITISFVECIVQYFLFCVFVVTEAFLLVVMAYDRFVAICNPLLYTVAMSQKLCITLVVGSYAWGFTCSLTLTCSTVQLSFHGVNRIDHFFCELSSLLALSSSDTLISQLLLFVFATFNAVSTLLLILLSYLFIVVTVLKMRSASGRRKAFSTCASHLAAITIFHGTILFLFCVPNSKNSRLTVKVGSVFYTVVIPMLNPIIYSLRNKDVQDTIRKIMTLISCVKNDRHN

Assay [3] concerns the target T3, mOR103-15 (Mus musculus, UniProt Q9QWU6).
T3 construct: gene Or6a2; full length; C-terminal GSSG linker plus rho1D4 tag (TETSQVAPA); E. coli cell-free expression in Brij-35, purified in FC-14
T3 sequence (Q9QWU6 1-327): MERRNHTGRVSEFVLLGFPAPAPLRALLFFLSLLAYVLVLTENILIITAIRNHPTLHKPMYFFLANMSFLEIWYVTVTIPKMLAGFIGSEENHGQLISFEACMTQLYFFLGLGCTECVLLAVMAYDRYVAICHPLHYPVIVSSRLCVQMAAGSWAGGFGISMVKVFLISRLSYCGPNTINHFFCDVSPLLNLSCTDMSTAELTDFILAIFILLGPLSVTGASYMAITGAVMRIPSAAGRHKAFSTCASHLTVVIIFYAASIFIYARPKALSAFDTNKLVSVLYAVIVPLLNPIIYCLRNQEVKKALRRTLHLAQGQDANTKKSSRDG

Each structure is given as a SMILES string.

Among the data in publication PMC3223156, “Designer Lipid-Like Peptides: A Class of Detergents for Studying Functional Olfactory Receptors Using Commercial Cell-Free Systems” (PLoS ONE, 2011) are EC50 values, retold here.

Broadly, the EC50 is the concentration needed to bring the measured effect to its halfway point. With `CCOc1cc(C=O)ccc1O` [Ethyl Vanillin], the concentration for a half-maximal effect (EC50) in assay [1] turned out to be 4.9 ± 3.5 µM; in assay [2] it was 7 ± 2 µM. For the compound `CCCCCCC=O` [Heptanal], in assay [3], the 50% effective concentration (EC50) was 2 ± 0.7 µM.
